Reference: the SangsterLogP compilation

How the values were obtained:
[1] = method code SF, from DOI: 10.1021/jm00063a015, PMID: 8388471

logP [1]	logP	SMILES
3.47		CN(Cc1ccccc1)C(=O)C(Cc1ccccc1)NC(=O)C(Cc1cn(C=O)c2ccccc12)NC(=O)CC1NC(=O)C2C3CCC(CC3)N2C1=O (stereo unspecified)
	2.95	CN(Cc1ccccc1)C(=O)C(Cc1ccccc1)NC(=O)C(Cc1cn(C(=O)OCCCCCCN)c2ccccc12)NC(=O)CC1NC(=O)C2C3CCC(CC3)N2C1=O (stereo unspecified)
	3.18	CN(Cc1ccccc1)C(=O)C(Cc1ccccc1)NC(=O)C(Cc1c[nH]c2ccccc12)NC(=O)CC1NC(=O)C2C3CCC(CC3)N2C1=O (stereo unspecified)
	3.69	CC(=O)n1cc(CC(NC(=O)CC2NC(=O)C3C4CCC(CC4)N3C2=O)C(=O)NC(Cc2ccccc2)C(=O)N(C)Cc2ccccc2)c2ccccc21 (stereo unspecified)
	5.33	CN(Cc1ccccc1)C(=O)[C@H](Cc1ccccc1)NC(=O)[C@@H](Cc1cn(C(=O)OC(C)(C)C)c2ccccc12)NC(=O)CC1NC(=O)C2C3CCC(CC3)N2C1=O (stereo partly specified)

Further lines, the molecule ahead of its results:

SMILES	logP [1]	logP
CN(Cc1ccccc1)C(=O)C(Cc1ccccc1)NC(=O)C(Cc1cn(C(=O)CCCCCCN)c2ccccc12)NC(=O)CC1NC(=O)C2C3CCC(CC3)N2C1=O (stereo unspecified)		2.48
CN(Cc1ccccc1)C(=O)C(Cc1ccccc1)NC(=O)C(Cc1cn(C(=O)CCC(=O)O)c2ccccc12)NC(=O)CC1NC(=O)C2C3CCC(CC3)N2C1=O (stereo unspecified)		3.15
COC(=O)n1cc(CC(NC(=O)CC2NC(=O)C3C4CCC(CC4)N3C2=O)C(=O)NC(Cc2ccccc2)C(=O)N(C)Cc2ccccc2)c2ccccc21 (stereo unspecified)		4.05
CN(Cc1ccccc1)C(=O)C(Cc1ccccc1)NC(=O)C(Cc1cn(C)c2ccccc12)NC(=O)CC1NC(=O)C2C3CCC(CC3)N2C1=O (stereo unspecified)		3.85
CCCCCCCC(=O)n1cc(C[C@@H](NC(=O)CC2NC(=O)C3C4CCC(CC4)N3C2=O)C(=O)N[C@@H](Cc2ccccc2)C(=O)N(C)Cc2ccccc2)c2ccccc21 (stereo partly specified)		7.29
CN(Cc1ccccc1)C(=O)C(Cc1ccccc1)NC(=O)C(Cc1cn(C(=O)OCc2ccccc2)c2ccccc12)NC(=O)CC1NC(=O)C2C3CCC(CC3)N2C1=O (stereo unspecified)	5.66	
